Data set [1] concerns the target T1, ROCK1 (Homo sapiens, UniProt Q13464).
T1 construct: purchased DiscoverX (KINOMEscan KdELECT service); host or cells: E. coli BL21-derived (T7 phage) or HEK-293
Kind of data set: KINOMEscan KdELECT kinase binding assay, ROCK1. Conditions: equilibrium dissociation constant, 11-point 3-fold dilution series. Here is the method:
(§1) The ROCK1 and ROCK2 kinase binding affinities of compounds in this invention were determined by DiscoverX's KINOMEscan™ KdELECT technology (https://www.discoverx.com/kinomescan-elect-kinase-screening-and-profiling-services): Kinase-tagged T7 phage strains were prepared in an E. coli host derived from the BL21 strain. E. coli were grown to log-phase and infected with T7 phage and incubated with shaking at 32° C. until lysis. The lysates were centrifuged and filtered to remove cell debris. The remaining kinases were produced in HEK-293 cells and subsequently tagged with DNA for qPCR detection. Streptavidin-coated magnetic beads were treated with biotinylated small molecule ligands for 30 minutes at room temperature to generate affinity resins for kinase assays. The liganded beads were blocked with excess biotin and washed with blocking buffer (SeaBlock (Pierce), 1% BSA, 0.05% Tween 20, 1 mM DTT) to remove unbound ligand and to reduce nonspecific binding. […] Test compounds were prepared as […] in 100% DMSO. Kds were determined using an […] 3-fold compound dilution series with three DMSO control points. […] The compounds were then diluted directly into the assays such that the final concentration of DMSO was 0.9%. All reactions performed in polypropylene 384-well plate. Each was a final volume of 0.02 ml. […] The kinase concentration in the eluates was measured by qPCR.

Data set [2] addresses T2, ROCK2 (Homo sapiens, UniProt O75116).
T2 construct: purchased DiscoverX (KINOMEscan KdELECT service); host or cells: E. coli BL21-derived (T7 phage) or HEK-293
Description: KINOMEscan KdELECT kinase binding assay, ROCK2. Conditions: equilibrium dissociation constant, 11-point 3-fold dilution series. Here is the method: as §1

Data set [3] deals with male CD-1 mice. Kind of data set: Mean arterial pressure after bile duct ligation in CD-1 mice. The format is in vivo. Conditions: BDL CD-1 mice, 10 mg/kg orally BID for 10 days, carotid catheter under isoflurane. The protocol: The experiments were performed on male CD-1 mice (10-11 week-old), purchased from Charles River Laboratories, MA. After arrival, the animals were housed in the Angion Biomedica animal care facility and allowed 5 days for acclimatization in room having an ambient temperature of 23±2° C. and 12 hr dark/light cycle. The animals were fed normal rodent chow and tap water was provided ad libitum. All the animal experimental protocols were approved by the Institutional Animal Care and Use Committee at the Angion Biomedica.
For bile duct ligation (BDL), we performed midline laparotomy of a length of approximately 1.5-2 cm by cutting the cutis plus fascia with a blunt end surgical scissor. The bile duct was then exposed by caudal movement of the gut. […] Animals were allowed to recover under heating pads and were monitored closely for signs of discomfort or pain.
After 24 hrs of bile duct ligation, the CD-1 mice (N=8-10 per group,) were treated with normal saline as vehicle and the Fasudil (10 mg/kg/body weight) and Compound of Ex. 1 (10 mg/kg body weight) groups were treated orally (BID) for 10 days. […] After 10 days of treatment, animals were anesthetized and mean arterial pressure was measured.
Mice were anaesthetized using isoflurane. […] The animals were maintained on heating pads throughout the surgery and temperature was recorded by inserting a temperature probe in the rectum. […]

The subject of data set [4] is BDL model, adult male C57BLU6 mice. Description: Biliary obstruction model (bile duct ligation, BDL). The format is in vivo. Conditions: 10 mg/kg PO BID; for MAP (mean arterial pressure) versus sham and BDL+vehicle: BDL C57BLU6 mice, day 9, FIG. 1. The protocol:
Adult male C57BLU6 mice were submitted to standard bile duct ligation (BDL model: Luo, W., Meng, Y., Ji, H. L., Pan, C. Q., Huang, S., Yu, C. H., Xiao, L. M., Cui, K., Ni, S. Y., Zhang, Z. S., Li, X. Spironolactone lowers portal hypertension by inhibiting liver fibrosis, ROCK-2 activity and activating NO/PKG pathway in the bile-duct-ligated rat. PLoS One 2012, 7(3), e34230) and treated with vehicle (n=7; 50% PEG300+10% tween 80+40% saline, the formulation for Ex. 1) or Ex. 1 (n=3; 10 mg/kg, PO, BID), starting a day after BDL surgery. In this study, animals were sacrificed 9 days after BDL. A subset of BDL animals was treated with fasudil (n=2; 10 mg/kg, PO, BID) to compare hemodynamic effects (on day 9) of a ROCK2-selective inhibitor vs. a dual ROCK1/2 inhibitor in this model of liver injury/disease. A sham group served as control.
The BDL model is a model of cholestatic injury and is associated with both inflammation and biliary sclerosis. This was evident even by day 9 in the BDL+vehicle-treated cohort (p<0.01 vs. sham). […] Treatment with a compound of the invention was also associated with a reduction in biliary inflammation (H&E sections, FIG. 4A) and the necro-inflammatory score (FIG. 4B).

Each structure is given as a SMILES string. Some results are limits rather than exact numbers.

For orientation: Kd means a measure of binding affinity in units of concentration. High values mean lower affinity, low ones higher affinity.

T1 sequence (Q13464 whole entry): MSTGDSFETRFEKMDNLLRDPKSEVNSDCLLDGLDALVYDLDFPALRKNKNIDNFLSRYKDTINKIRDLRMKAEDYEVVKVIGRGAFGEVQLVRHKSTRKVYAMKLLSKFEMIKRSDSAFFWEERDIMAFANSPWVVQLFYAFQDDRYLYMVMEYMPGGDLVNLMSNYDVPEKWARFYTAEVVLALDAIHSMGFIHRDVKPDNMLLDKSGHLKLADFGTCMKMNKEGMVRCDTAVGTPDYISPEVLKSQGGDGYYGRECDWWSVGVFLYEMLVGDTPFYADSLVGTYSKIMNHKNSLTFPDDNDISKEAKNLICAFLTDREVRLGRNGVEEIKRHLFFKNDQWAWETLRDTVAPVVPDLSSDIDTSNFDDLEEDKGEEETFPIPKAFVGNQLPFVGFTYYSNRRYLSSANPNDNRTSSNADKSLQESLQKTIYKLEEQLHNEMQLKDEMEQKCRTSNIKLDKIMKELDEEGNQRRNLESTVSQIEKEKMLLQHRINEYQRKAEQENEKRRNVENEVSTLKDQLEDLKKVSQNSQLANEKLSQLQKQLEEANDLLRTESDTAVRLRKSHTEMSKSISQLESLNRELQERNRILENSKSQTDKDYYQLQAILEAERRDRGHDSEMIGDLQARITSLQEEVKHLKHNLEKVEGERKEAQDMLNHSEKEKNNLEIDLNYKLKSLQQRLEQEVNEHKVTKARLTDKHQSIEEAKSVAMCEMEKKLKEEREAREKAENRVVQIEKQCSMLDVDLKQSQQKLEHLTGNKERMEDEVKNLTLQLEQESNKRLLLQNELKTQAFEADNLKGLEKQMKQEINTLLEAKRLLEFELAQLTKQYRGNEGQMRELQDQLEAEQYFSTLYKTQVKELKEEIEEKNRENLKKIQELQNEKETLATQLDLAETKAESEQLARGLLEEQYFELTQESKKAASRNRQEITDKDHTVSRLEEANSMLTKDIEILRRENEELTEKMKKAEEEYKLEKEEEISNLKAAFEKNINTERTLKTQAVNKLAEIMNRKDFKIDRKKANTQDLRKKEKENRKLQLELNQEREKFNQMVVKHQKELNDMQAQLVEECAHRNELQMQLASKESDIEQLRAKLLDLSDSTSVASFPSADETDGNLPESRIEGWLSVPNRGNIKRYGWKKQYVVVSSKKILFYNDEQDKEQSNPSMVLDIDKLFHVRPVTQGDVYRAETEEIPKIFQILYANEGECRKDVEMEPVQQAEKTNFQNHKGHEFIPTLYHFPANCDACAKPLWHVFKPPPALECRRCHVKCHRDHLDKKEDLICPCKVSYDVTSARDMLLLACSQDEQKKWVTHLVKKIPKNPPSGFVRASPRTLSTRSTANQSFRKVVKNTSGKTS
T2 sequence (O75116 whole entry): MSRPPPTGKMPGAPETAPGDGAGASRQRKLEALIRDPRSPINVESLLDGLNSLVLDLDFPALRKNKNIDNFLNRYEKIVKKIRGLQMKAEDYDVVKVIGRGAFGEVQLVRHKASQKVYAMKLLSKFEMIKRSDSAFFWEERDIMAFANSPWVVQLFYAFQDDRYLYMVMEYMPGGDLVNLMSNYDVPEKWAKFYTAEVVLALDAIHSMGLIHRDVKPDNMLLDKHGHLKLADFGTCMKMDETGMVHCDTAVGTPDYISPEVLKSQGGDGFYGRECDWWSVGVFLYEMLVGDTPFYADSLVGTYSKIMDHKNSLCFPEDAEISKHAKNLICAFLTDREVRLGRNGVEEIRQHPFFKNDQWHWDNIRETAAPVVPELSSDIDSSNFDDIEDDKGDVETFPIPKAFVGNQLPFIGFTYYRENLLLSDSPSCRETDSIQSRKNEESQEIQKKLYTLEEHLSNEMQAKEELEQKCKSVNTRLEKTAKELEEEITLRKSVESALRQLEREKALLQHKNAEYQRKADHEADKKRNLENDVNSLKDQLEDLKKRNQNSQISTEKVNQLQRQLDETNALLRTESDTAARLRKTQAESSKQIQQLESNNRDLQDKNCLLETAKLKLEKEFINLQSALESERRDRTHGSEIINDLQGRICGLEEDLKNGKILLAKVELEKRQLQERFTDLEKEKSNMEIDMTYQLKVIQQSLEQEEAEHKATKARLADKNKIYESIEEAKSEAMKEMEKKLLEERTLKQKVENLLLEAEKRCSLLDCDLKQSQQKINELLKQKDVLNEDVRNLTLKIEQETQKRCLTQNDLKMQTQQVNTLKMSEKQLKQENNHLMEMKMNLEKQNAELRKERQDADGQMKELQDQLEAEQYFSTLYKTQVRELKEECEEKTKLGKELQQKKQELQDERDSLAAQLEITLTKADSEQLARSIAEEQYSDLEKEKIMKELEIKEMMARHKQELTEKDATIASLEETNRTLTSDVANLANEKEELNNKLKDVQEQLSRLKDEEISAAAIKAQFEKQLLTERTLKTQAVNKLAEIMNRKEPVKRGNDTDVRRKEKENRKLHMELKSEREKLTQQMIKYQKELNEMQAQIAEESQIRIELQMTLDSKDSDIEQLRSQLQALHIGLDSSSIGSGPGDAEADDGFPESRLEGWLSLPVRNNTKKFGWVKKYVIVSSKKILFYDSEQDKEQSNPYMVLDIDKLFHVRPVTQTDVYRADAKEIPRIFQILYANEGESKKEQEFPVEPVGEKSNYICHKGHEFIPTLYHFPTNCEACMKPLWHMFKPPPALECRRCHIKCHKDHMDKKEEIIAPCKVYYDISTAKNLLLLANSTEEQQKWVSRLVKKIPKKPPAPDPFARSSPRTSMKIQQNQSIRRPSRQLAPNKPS

With `COc1ccc2c(c1)CN(c1nccc(-c3nccc(/C=C/c4ccncc4)n3)n1)C2` [Ex. 1, (E)-5-Methoxy-2-(4-(2-(pyridine-4-yl)vinyl)-[2,4′-bipyrimidin]-2′-yl)isoindoline], the equilibrium dissociation constant (Kd) in data set [1] is more than 30 µM; in data set [2], 140 nM. Moreover, in data set [3], the “change (decrease) in mean arterial blood pressure” value was “did not cause any change”. In addition, the “MAP (mean arterial pressure) versus sham and BDL+vehicle” value in data set [4] is on record as “not different”. Moreover, the “biliary thickening (bile duct wall thickness)” value in data set [4] (BDL mice, day 9, H&E sections and quantitative analysis, FIG. 2 and 3) is given as “reduction in biliary thickening”.
With `N#Cc1ccc2c(c1)CN(c1nccc(-c3nccc(/C=C/c4ccncc4)n3)n1)C2` [Ex. 8, (E)-2-(4-(2-(Pyridin-4-yl)vinyl)-[2,4′-bipyrimidin]-2′-yl)isoindoline-5-carbonitrile], the Kd came out at 0.68 µM in data set [1] and 110 nM in data set [2].
Turning to `CN(C)CCOc1ccc2c(c1)CN(c1nccc(-c3nccc(/C=C/c4ccncc4)n3)n1)C2` [Ex. 9, (E)-N,N-Dimethyl-2-((2-(4-(2-(pyridin-4-yl)vinyl)-[2,4′-bipyrimidin]-2′-yl)isoindolin-5-yl)oxy)ethanamine], the results for the Kd in data set [1] and in data set [2] were 2.4 µM and 85 nM, respectively.
For the compound `COc1ccc2c(c1)CN(c1nccc(-c3nccc(/C=C/c4ccnc5ccccc45)n3)n1)C2` [Ex. 3, (E)-4-(2-(2′-(5-Methoxyisoindolin-2-yl)-[2,4′-bipyrimidin]-4-yl)vinyl)quinoline], the results for the Kd in data set [1] and in data set [2] were more than 30 µM and more than 30000 nM, respectively.
Consider `O=S(=O)(Oc1ccc2c(c1)CN(c1nccc(-c3nccc(/C=C/c4ccncc4)n3)n1)C2)C(F)(F)F` [Ex. 7, (E)-2-(4-(2-(Pyridin-4-yl)vinyl)-[2,4′-bipyrimidin]-2′-yl)isoindolin-5-yl Trifluoromethanesulfonate], for which the dissociation constant (Kd) was more than 30 µM in data set [1] and 910 nM in data set [2].
Regarding `CC(C)NC(=O)COc1ccc2c(c1)CN(c1nccc(-c3nccc(/C=C/c4ccncc4)n3)n1)C2` [Ex. 13, (E)-N-Isopropyl-2-((2-(4-(2-(pyridin-4-yl)vinyl)-[2,4′-bipyrimidin]-2′-yl)isoindolin-5-yl)oxy)acetamide], the Kd in data set [1] is 13 µM; in data set [2], 130 nM.
The matching figures for `CCNC(=O)COc1ccc2c(c1)CN(c1nccc(-c3nccc(/C=C/c4ccncc4)n3)n1)C2` [Ex. 12, (E)-N-Ethyl-2-((2-(4-(2-(pyridin-4-yl)vinyl)-[2,4′-bipyrimidin]-2′-yl)isoindolin-5-yl)oxy)acetamide]: 15 µM and 180 nM.
With `O=S(=O)(c1cccc2cnccc12)N1CCCNCC1` [fasudil, reference compound], the “change (decrease) in mean arterial blood pressure” value in data set [3] was approximately 26 mm Hg. Moreover, the “MAP (mean arterial pressure) versus sham and BDL+vehicle” value in data set [4] is given as “decreased MAP”.
For the compound `COc1ccc2c(c1)CN(c1nccc(-c3nccc(/C=C/c4ccnc5[nH]ccc45)n3)n1)C2` [Ex. 4, (E)-4-(2-(2′-(5-Methoxyisoindolin-2-yl)-[2,4′-bipyrimidin]-4-yl)vinyl)-1H-pyrrolo[2,3-b]pyridine], the Kd was 8 µM in data set [1] and 1800 nM in data set [2].
The matching figures for `COc1ccc2c(c1)CN(c1nccc(-c3nccc(/C=C/c4ccnc(N)n4)n3)n1)C2` [Ex. 5, (E)-4-(2-(2′-(5-Methoxyisoindolin-2-yl)-[2,4′-bipyrimidin]-4-yl)vinyl)pyrimidin-2-amine]: more than 30 µM and 2000 nM.
Regarding `Oc1ccc2c(c1)CN(c1nccc(-c3nccc(/C=C/c4ccncc4)n3)n1)C2` [Ex. 6, (E)-2-(4-(2-(Pyridin-4-yl)vinyl)-[2,4′-bipyrimidin]-2′-yl)isoindolin-5-ol], the Kd in data set [1] is more than 30 µM; in data set [2] it was 120 nM.
The corresponding values for `CNC(=O)COc1ccc2c(c1)CN(c1nccc(-c3nccc(/C=C/c4ccncc4)n3)n1)C2` [Ex. 11, (E)-N-Methyl-2-((2-(4-(2-(pyridin-4-yl)vinyl)-[2,4′-bipyrimidin]-2′-yl)isoindolin-5-yl)oxy)acetamide] are 1.1 µM and 110 nM.
The corresponding values for `Fc1ccc2c(c1)CN(c1nccc(-c3nccc(/C=C/c4ccncc4)n3)n1)C2` [Ex. 14, (E)-5-Fluoro-2-(4-(2-(pyridine-4-yl)vinyl)-[2,4′-bipyrimidin]-2′-yl)isoindoline] are 26 µM and 1200 nM.

The record behind these values is patent US11542256B2, “Vinylheterocycles as Rho-associated coiled-coil kinase (ROCK) inhibitors” (ANGION BIOMEDICA CORP., priority 2017, dated 2023).
